Experimental findings from patent US20250134952A1, “METHODS FOR IMPROVING THE EFFICACY OF HDAC INHIBITOR THERAPY AND PREDICTING THE RESPONSE TO TREATMENT WITH HDAC INHIBITOR” (INSTITUT NATIONAL DE LA SANTÉ ET DE LA RECHERCHE MÉDICALE, priority 2021, published 2025) are described below.

One experiment concerns GADD45a. The experiment can be described thus: GADD45a expression by real-time PCR. The conditions noted are these: 100 nM TSA, 24 h. The experiment is classed as cell-based, human. The method, then:
(§1) (A) Representative confocal sections of MCF7shctrl and shTau cells untreated or treated with 100 nM TSA for 24 h. […] (B) Quantification of HP1α clusters per nuclei visualized as described previously and realized on three independent experiments. (C) GADD45a and (D) p21 (CDKN1a) expression in MCF7shctrl and shTau cells untreated or treated with 100 nM TSA for 24 h were analyzed by real-time PCR and normalized to RPLO. Results are expressed, relative to the basal activity set to 1, as the mean±SD of three independent assays. (E) Tau tethering prevents adjacent reporter gene activity induced by TSA. GAL4UAS responsive luciferase reporter Hela stable cell line was transfected with GAL4DBD (GAL4) or GAL4DBD-Tau4R and then, 24 h later, treated with TSA (600 nM) for 24 h. The luciferase activity was determined as described in the Materials and Methods. (F) Ectopic Tau4R expression prevents adjacent reporter gene activity induced by TSA. […] The luciferase activity was determined as described in the Materials and Methods. […]
(§2) Total RNA was prepared using RNeasyMinikit (Qiagen). Reverse transcription (RT) was performed using random hexamers as recommended by the manufacturer (Applied Biosystems). cDNAs were analyzed by PCR amplification using the TaqMan PCR master mix (Applied Biosystems) and a mix of RPLO primers and probes. […]
(In qPCR the cycle at which signal appears reflects the starting amount.)

The test system of a further experiment is p21 (CDKN1a). The experiment can be described thus: p21 (CDKN1a) expression by real-time PCR. The format is cell-based, human. As to conditions: 100 nM TSA, 24 h. The method, then:
as §1, §2

In experiment [1] the test system is GAPDH promoter in MCF7shctrl cells. Nature of the experiment: ChIP-qPCR of H3 acetylation and Tau occupancy on the GAPDH promoter. The format is cell-based, human. As to conditions: 100 nM TSA, GAPDH transcription start site. The source says:
(A) Chromatin immunoprecipitations-qPCR analysis of H3 acetylation and Tau occupancy on the GAPDH promoter in MCF7shctrl cells in the indicated conditions. MCF7shctrl cells were subjected to cross-linking by 1% formaldehyde. Chromatin fragments were then immunoprecipitated using antibodies (Ab) against acetylated H3 (ac-H3) or Tau and analyzed by quantitative PCR for the presence of the GAPDH promoter. (B) Functional organization of the p21 promoter. (C) ChIP-qPCR analysis of H3 acetylation in MCF7shctrl or shTau cells or (D) Tau occupancy in MCF7shctrl cells on the p21 promoter. […] Chromatin fragments were then immunoprecipitated using antibodies (Ab) against acetylated H3 or Tau and analyzed by quantitative PCR for the presence of the GAL4 UAS promoter. Quantification of enrichment is represented as fold-enrichment relative to IgG. […]
To test this hypothesis, we next performed chromatin immunoprecipitations assays. […] Quantitative PCR analysis of input or immunoprecipitated DNA using acetylated H3 and Tau antibodies was carried out to detect different promoter regions. […] No change in the level of acetylated H3, nor Tau binding, were detected after TSA treatment (FIG. 3A). […] In addition, Tau was detected at the level of these regions in MCF7shctrl cells (≈4-fold enrichment) in absence or presence of TSA treatment (FIG. 3D).

The test system of experiment [2] is GAL4 UAS promoter in GAL4UAS responsive luciferase reporter Hela stable cell line. Nature of the experiment: ChIP-qPCR of H3 acetylation or Tau occupancy on the GAL4UAS promoter. The experiment is classed as cell-based. The source says:
(A) Chromatin immunoprecipitations-qPCR analysis of H3 acetylation and Tau occupancy on the GAPDH promoter in MCF7shctrl cells in the indicated conditions. MCF7shctrl cells were subjected to cross-linking by 1% formaldehyde. Chromatin fragments were then immunoprecipitated using antibodies (Ab) against acetylated H3 (ac-H3) or Tau and analyzed by quantitative PCR for the presence of the GAPDH promoter. (B) Functional organization of the p21 promoter. (C) ChIP-qPCR analysis of H3 acetylation in MCF7shctrl or shTau cells or (D) Tau occupancy in MCF7shctrl cells on the p21 promoter. (E) ChIP-qPCR analysis of H3 acetylation or Tau occupancy on the stably transfected GAL4UAS responsive luciferase reporter transfected, or not, with Tau4R, then 24 h later treated with 100 nM TSA for 24 h. Cells were then subjected to cross-linking by 1% formaldehyde. Chromatin fragments were then immunoprecipitated using antibodies (Ab) against acetylated H3 or Tau and analyzed by quantitative PCR for the presence of the GAL4 UAS promoter. Quantification of enrichment is represented as fold-enrichment relative to IgG. Data are mean±SD **P<0.01***P<0.001
The ChIP protocol used was previously described (Lefebvre et al., 2006). […]

The mark [3] stands for this setting: MCF7shctrl cells, relative to basal.
The mark [4] stands for this setting: cells with reduced Tau expression (MCF7shTau) vs MCF7shctrl.

For the compound `CC(/C=C/C(=O)NO)=C\[C@@H](C)C(=O)c1ccc(N(C)C)cc1` [TSA, 2,4-Heptadienamide, 7-[4-(dimethylamino)phenyl]-N-hydroxy-4,6-dimethyl-7-oxo-, (2E,4E,6R)-], the “GADD45a induction (RT-qPCR)” value in the experiment on GADD45a (setting [3]) came out at 3 fold. Besides, in the experiment with GADD45a (setting [4]), the “GADD45a upregulation by TSA” value is “exacerbated”. For the same compound, in the experiment on p21 (CDKN1a) (setting [3]), the “p21 induction (RT-qPCR)” value was 2.5 fold. In addition, the “p21 upregulation by TSA” value in the experiment on p21 (CDKN1a) (setting [4]) is “exacerbated”. In addition, the “level of acetylated H3 and Tau binding after TSA treatment” value in experiment [1] is “No change”. Moreover, the “TSA-induced increase of ac-H3 in the presence of transfected Tau4R” value in experiment [2] (100 nM TSA, Tau4R transfected HeLa cells) was “abrogated”. The same compound had a Tau4R enrichment in experiment [2] (TSA-treated condition (100 nM), Tau4R transfected) of 16 fold.
